Results: publication PMC6588349 (eLife, 2019)
Read-outs that look alike come from different tables or passages of the source.

Assays:
[1] = molecular target: T1, full-length mGluR2 (SNAP-mGluR2) (Rattus norvegicus, UniProt P31421); assay: GIRK activation assay, whole cell patch clamp, HEK 293T cells expressing full-length mGluR2; assay type: cell-based; conditions: for effect on basal GIRK current in the absence of glutamate: NAM alone, HEK 293T cells expressing GIRK and full-length mGluR2
T1 construct: HEK 293T cells expressing full-length mGluR2; expressed in transfected cells; host or cells: HEK 293T
T1 sequence (P31421 19-872): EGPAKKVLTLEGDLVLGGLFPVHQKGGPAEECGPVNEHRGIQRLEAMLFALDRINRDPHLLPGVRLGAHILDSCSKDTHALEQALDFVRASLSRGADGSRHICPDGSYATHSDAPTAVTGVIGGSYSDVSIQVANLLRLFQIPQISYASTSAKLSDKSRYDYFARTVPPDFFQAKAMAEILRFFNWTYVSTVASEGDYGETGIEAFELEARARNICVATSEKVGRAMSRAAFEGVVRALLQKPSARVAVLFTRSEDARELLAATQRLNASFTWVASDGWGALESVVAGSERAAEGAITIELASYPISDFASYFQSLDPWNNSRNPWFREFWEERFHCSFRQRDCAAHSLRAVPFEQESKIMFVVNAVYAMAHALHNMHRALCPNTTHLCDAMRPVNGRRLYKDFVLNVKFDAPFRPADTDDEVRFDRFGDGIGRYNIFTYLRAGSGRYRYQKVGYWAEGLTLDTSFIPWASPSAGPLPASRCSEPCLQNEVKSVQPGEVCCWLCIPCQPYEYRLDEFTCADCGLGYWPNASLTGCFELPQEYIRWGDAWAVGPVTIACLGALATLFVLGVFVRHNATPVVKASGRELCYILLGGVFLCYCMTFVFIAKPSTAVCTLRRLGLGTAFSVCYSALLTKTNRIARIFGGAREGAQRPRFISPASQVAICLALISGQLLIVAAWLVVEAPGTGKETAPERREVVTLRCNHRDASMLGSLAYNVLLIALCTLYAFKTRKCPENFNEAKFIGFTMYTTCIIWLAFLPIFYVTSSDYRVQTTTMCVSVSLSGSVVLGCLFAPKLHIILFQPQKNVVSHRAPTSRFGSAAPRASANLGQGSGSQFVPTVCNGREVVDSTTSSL
Experimental: Cells were cultured in DMEM with 5% FBS on poly-L-lysine-coated glass coverslips. DNA plasmids were transfected into cells using Lipofectamine 3000 (Thermo Fisher). […] For single-molecule pulldown (SiMPull) experiments, cells were transfected with 0.7 μg DNA of HA and SNAP-tagged receptor constructs, unless otherwise noted.
Whole-cell patch clamp recordings from single isolated cells were performed 24–36 hr after transfection in a high-potassium extracellular solution containing (in mM): 120 KCl, 29 NaCl, 1 MgCl2, 2 CaCl2 and 10 HEPES, pH 7.4. Cells were voltage clamped to −60 mV using an Axopatch 200B amplifier (Axon Instruments) and membrane currents were recorded. Glass pipettes of resistance between 3 and 8 MΩ were filled with intracellular solution containing (in mM): 140 KCl, 10 HEPES, 3 Na2ATP, 0.2 Na2GTP, 5 EGTA and 3 MgCl2, pH 7.4. Data were acquired with a 2 kHz acquisition rate and filtered with the amplifier 4-pole Bessel filter at 1 kHz. Drugs were prepared in extracellular solution and applied using a gravity-driven perfusion system. Data were analyzed with Clampfit (Molecular Devices) and Prism (GraphPad). Data for all conditions came from at least two separate transfections.

SNAP-mGluR2 = molecular target: T2, SNAP-mGluR2 (Rattus norvegicus, UniProt P31421); assay: Single-molecule pulldown (SiMPull) photobleaching step counting, full-length SNAP-mGluR2; conditions: 1 mM glutamate and 10 µM LY48
T2 construct: HEK 293T cells expressing full-length mGluR2; expressed in transfected cells; host or cells: HEK 293T
T2 sequence (P31421 19-872): as above
Experimental: To restrict our analysis to surface-targeted receptors, we expressed N-terminally SNAP-tagged receptor variants and labeled them with membrane-impermeable fluorophores.
To test this, we incubated SNAP-mGluR2-TMD expressing cells and lysates with PAMs or NAMs during the SiMPull experiment.
Briefly, to prevent non-specific sticking of proteins, flow chambers were prepared with mPEG-passivated glass slides and coverslips doped with ~1% biotinylated mPEG, as previously described. Prior to each experiment, chambers were incubated with 0.2 mg/mL NeutrAvidin (ThermoFisher) for 2 min followed by 10 nM of a biotinylated anti-HA antibody (abcam ab26228) for 20–30 min. After each conjugation step, the chambers were washed with T50 buffer (50 mM NaCl, 10 mM Tris, pH 7.5).
After labeling, cells were dissociated from coverslips by incubating with Ca^2+-free PBS for 20 min followed by gentle pipetting. […] Following 1 hr of lysis at 4°C, cells were centrifuged at 16,000 g for 20 min before the supernatant was collected and maintained on ice. The cell lysate was diluted in a 0.1% detergent dilution buffer to obtain sparse immobilization of labeled protein on the passivated slide. […]
Single molecules were imaged with a 100x objective on an inverted microscope (Olympus IX73) in total internal reflection fluorescence (TIRF) mode. […]

[2] = Gramicidin-based fluorescence quench assay for changes of lipid bilayer properties (LUVs); assay type: physicochemical; conditions: 1 to 10 µM
Excerpt: To further probe this, we used a fluorescence quench assay for drug-induced changes of lipid bilayer properties ([Ingólfsson and Andersen, 2010]) (Figure 6—figure supplement 3A; see Materials and methods), in which changes in gramicidin channel function is used as a reporter of membrane modification. […] The persistent BINA response is thus consistent with a model where BINA readily partitions into the plasma membrane lipid bilayer (and possibly other lipidic compartments).
The gramicidin-based fluorescence assay has been described previously ([Ingólfsson and Andersen, 2010]). In brief, large unilamellar vesicles (LUVs), loaded with intravesicular ANTS were prepared from DC22:1PC and gramicidin (weight ratio 1000:1, corresponding to a ~ 2000:1 molar ratio) using freeze-drying, extrusion and size-exclusion chromatography; the final lipid concentration was 4–5 mM; the suspension was stored in the dark at 12.5°C for a maximum of 7 days. […] Before use, the LUV-ANTS stock was diluted to 200–250 μM lipid with NaNO3 buffer (140 mM NaNO3, 10 mM HEPES, pH 7).
The NAMs and PAMs (dissolved in DMSO) or DMSO (as control) were added to a LUV-ANTS sample and equilibrated at 25°C in the dark for 10 min. before the mixture was loaded into a stopped-flow spectrofluorometer (Applied Photophysics SX.20, Leatherhead, UK) and mixed with either NaNO3 buffer or TlNO3 buffer; Tl^+ (thallous ion) is a gramicidin channel-permeant quencher of the ANTS fluorescence. Samples were excited at 352 nm and the fluorescence signal above 455 nm was recorded in the absence (four successive trials) or presence (nine successive trials) of the quencher. All the NAM and PAM derivatives fluoresce to varying degrees and addition of these drugs to LUVs in control experiments without gA or Tl^+ increased the fluorescence signal, and each signal was normalized to account for the compound's fluorescence. […] The quench rate (Rate), the rate of Tl^+ influx, was determined at 2 ms: Rate=β/τ0⋅(t/τ0)^β−1|2ms […]

SMILES: COc1ccccc1Oc1ccc(N(Cc2cccnc2)S(=O)(=O)CC(F)(F)F)cc1 [LY48]
- effect on the glutamate-sensitivity of mGluR2 (GIRK) ([1]; 50 nM LY48): no effect on the glutamate-sensitivity of mGluR2
- highest concentration that did not produce a GIRK response on its own ([1]; full-length mGluR2): 50 nM
- reversibility of GIRK currents after washout ([1]; full-length mGluR2, up to 10 min of washout): fully-reversible currents
- EC50 ([1]; mGluR2-WT, read-out: GIRK activation EC50 (approximate)): ~300 nM
- maximal PAM-induced GIRK activation relative to glutamate ([1]; mGluR2-WT, relative to saturating glutamate): ~ 70%
- GIRK current time 10% to 90% ([1]; saturating: 10 µM LY48, 1 mM Glutamate): 14.3 ± 3.5 s
- EC50 ([1]; wild-type SNAP-mGluR2, HEK 293T, PAM alone, normalized to saturating glutamate, mean ± s.e.m., read-out: GIRK activation EC50): 230 ± 40 nM
- two-step bleaching events of SNAP-mGluR2 with glutamate plus LY48 (SNAP-mGluR2): ~ 60%

SMILES: N#Cc1cc(C2=Nc3ccc(Br)cc3NC(=O)C2)ccn1 [MNI 137]
- effect on basal GIRK current in the absence of glutamate [1]: no effect on basal current
- effect of co-application on LY48-induced GIRK activation ([1]; co-applied with LY48, saturating concentration for LY341495): blocked
- changes in gramicidin channel function (membrane properties) [2]: do not alter membrane properties

SMILES: Clc1cccc(Cl)c1/C(=C/n1cncn1)OC1CCCCCC1 [Ro 64]
- effect on basal GIRK current in the absence of glutamate [1]: small but clear outward current
- changes in gramicidin channel function (membrane properties) [2]: do not alter membrane properties
